This is an account of results in PubChem BioAssay (NCI).

Holding throughout (experiment): NCI anticancer screen, dose series, 48 h
Test [1] deals with M14 melanoma.
Test [2] relates to 786-0 renal.
Test [3] relates to SNB-75 CNS.
Test [4] has as its system OVCAR-3 ovarian.
Test [5] relates to SK-MEL-28 melanoma.
Test [6] relates to UO-31 renal.
For test [7], the system named is HCT-15 colon.
Test [8] relates to HCT-116 colon.
The subject of test [9] is HOP-62 NSCLC.

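Tested at 5 concentrations; 48 h exposure; 96-well plates; endpoints linearly interpolated, else capped at highest concentration. GI50: concentration for 50% inhibition of growth. TGI: concentration producing complete growth inhibition.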 Where only a bound is given, the exact number is not on record here.

In the case of `CCCCCCCCCCCCN(O)C(=O)c1ccccc1`, the TGI in test [1] was 82.2 µM; in [2], 49.2 µM; in test [3], 82.7 µM; in test [4] it was > 100 µM; in test [5] it was > 100 µM; in test [6] it was > 100 µM. Moreover, the TGI in [7] and in test [8] was > 100 µM throughout.

Take `Cn1c2c(c3ccccc31)CCN(CCCCN1CCN(c3cccc(Cl)c3)CC1)C2=O`: the TGI in test [1] is 10.7 µM; in [9], 30.7 µM; in test [2], 29.6 µM; in test [3], 9.61 µM; in [4], 34 µM; in [5], 20.1 µM. In addition, the TGI in [6] is 22.4 µM; in test [7] it was 29.7 µM; in [8], 19.4 µM.

Take `O=C1C2c3[nH]c4ccccc4c3[C@@H]3CCCCC3C2C(=O)N1c1ccccc1` (stereo partly specified): the TGI in test [1] is 30 µM; in [2] it was 37.5 µM; in test [3], 71.5 µM; in [4], 30.1 µM; in test [5], 33 µM; in [6], 45 µM. Also, the TGI in test [7] was > 100 µM.

Turning to `OC(c1ccccn1)C1CNc2ccccc21` (stereo unspecified), the TGI in test [1], in test [9], in [2], in test [3], in test [4] and in [5] was > 100 µM each time. The TGI in test [6], in test [7] and in test [8] was > 100 µM throughout.

In the case of `O=C(CC(=O)C1CCOC1=O)C(=O)Nc1ccc(Cl)cc1Cl` (stereo unspecified), the TGI in test [1], in test [9], in test [2], in test [3], in test [4] and in test [5] was > 100 µM throughout. Moreover, the TGI in test [6], in test [7] and in test [8] was > 100 µM each time.

For the compound `Cc1ccc(C)c(NC(=O)CCc2nc(=S)[nH][nH]2)c1`, the TGI in test [1], in [9], in test [2], in test [3], in test [4] and in test [5] was > 100 µM in each case. The TGI in test [6], in test [7] and in test [8] was > 100 µM in each case.

Turning to `COC(OC)[C@@H](C)[C@H](O)[C@](C)(O)C1OC(C)(C)OC(C(C)C=C(C)C)C1C` (stereo partly specified), the TGI in test [1], in test [9], in test [2], in [3], in test [4] and in [5] was > 100 µM throughout. Moreover, the TGI in test [6], in test [7] and in [8] was > 100 µM in each case.

For `CNCCCNc1nc2ccccc2c2c(=O)c3cc(Cl)ccc3sc12`, the GI50 is 1.13 µM in test [9]; 1.71 µM in [2]; 1.31 µM in [3]; 1.61 µM in test [4]; 1.82 µM in test [5]; 1.16 µM in [6]. Further, in test [7], the GI50 is 1.5 µM. Also, the TGI amounted to 2.44 µM in [9]; 3.2 µM in test [2]; 2.61 µM in test [3]; 3.08 µM in test [4]; 3.34 µM in test [5]; 2.42 µM in [6]. Moreover, the TGI in test [7] came out at 2.92 µM.

For `CC(=O)NNc1nc(C)c(C(/C=C/c2ccc(Cl)cc2)=N/NC(=O)C[N+](C)(C)C)s1`, the TGI in test [1], in test [2], in [3], in test [4], in test [5] and in [6] was > 100 µM each time. Also, the TGI in test [7] and in test [8] was > 100 µM in each case.

In the case of `COc1cc(-c2cc(=O)c3cc(C)c(C)c(C(=O)O)c3o2)cc(OC)c1OC`, the TGI in [1] was > 100 µM; in [9], > 100 µM; in test [2], > 100 µM; in [3], 55.9 µM; in [4] it was > 100 µM; in test [5], > 100 µM. For the same compound, the TGI in test [6], in [7] and in test [8] was > 100 µM each time.

As to `O=C1c2c(O)cc(O)cc2OC(c2ccc(O)cc2O)C1O` (stereo unspecified), the TGI in test [1], in test [9], in [2], in [3], in test [4] and in test [5] was > 100 µM throughout. Also, the TGI in test [6], in [7] and in [8] was > 100 µM each time. Moreover, the GI50 in [9], in test [2], in test [3], in [4], in test [5] and in test [6] was > 100 µM in each case. In addition, the GI50 in [7] and in test [8] was > 100 µM in each case.

`COCCOCC(=O)N(CCn1ccc(NC(c2ccccc2)(c2ccccc2)c2ccccc2)nc1=O)CCn1cnc2nc(N)[nH]c(=O)c21`: the TGI in [1], in [9], in [2], in test [3], in test [4] and in test [5] was > 100 µM each time. Also, the TGI in test [6], in test [7] and in test [8] was > 100 µM each time.

Regarding `O=C(O)Cn1c(=O)[nH]c(=O)c2c1ncn2Cc1ccccc1`, the TGI in [1], in test [9], in test [2], in test [3], in [4] and in test [5] was > 100 µM each time. The TGI in test [6], in test [7] and in test [8] was > 100 µM each time.

As for `CC/C(C)=C1\OC(=O)C(C)C(O)C(Cc2cccnc2)NC(=O)C(NC(=O)c2ncccc2O)C(C)OC1=O` (stereo unspecified), the TGI in test [1], in test [9], in [2], in test [3], in test [4] and in test [5] was > 100 µM in each case. Besides, the TGI in [7] and in test [8] was > 100 µM each time.

In the case of `Cc1nc(Nc2ccc([N+](=O)[O-])cc2)sc1C(/C=C/c1ccc(N(C)C)cc1)=N/NC(=O)c1ccccc1`, the TGI in [1], in test [9], in test [2], in [3], in test [4] and in test [5] was > 100 µM throughout. For the same compound, the TGI in test [6], in test [7] and in test [8] was > 100 µM throughout.

On to `CC(C)(C)C(=O)O[C@@H]1COC2C(O)COC21` (stereo partly specified), for which the TGI in test [1], in [9], in [2], in test [3], in [4] and in test [5] was > 100 µM each time. The TGI in [6] and in test [8] was > 100 µM throughout.

Take `CCC(C(=O)[O-])C(=O)[O-].CCC(C(=O)[O-])C(=O)[O-].N.N.NCCCCCCN.[Pt+4].[Pt+4]`: the GI50 is 6.68 µM in [1]; 20.4 µM in test [9]; 7.74 µM in [2]; 9.85 µM in test [3]; 9 µM in test [4]; 6.58 µM in test [5]. Also, the GI50 in test [6] is 7.06 µM; in test [7], 5 µM; in [8], 5.59 µM. In addition, the TGI in test [1] amounted to 13.1 µM; in test [9], 50 µM; in test [2], 14.5 µM; in [3] it was 20.4 µM; in test [4], 16.3 µM; in [5], 14.6 µM. Besides, the TGI in test [6] stood at 13.6 µM; in test [7], 13.8 µM; in test [8], 14 µM.

Take `O=C([O-])c1ccc(C(=O)[O-])cc1.O=C([O-])c1ccc(C(=O)[O-])cc1.[Mo+2].[Mo+2]`: the GI50 in test [1], in test [2], in test [4], in [5], in test [6] and in test [7] was > 100 µM throughout. For the same compound, the GI50 in test [8] is > 100 µM. Further, the TGI in test [1], in test [2], in [4], in [5], in [6] and in test [7] was > 100 µM each time. Also, the TGI in test [8] is > 100 µM.

With `N#CC1(C=O)c2ccccc2C=CN1C(=O)c1ccccc1` (stereo unspecified), the TGI in test [1] is 92.4 µM; in [2], > 100 µM; in [3], 66.9 µM; in test [4], 52.8 µM; in test [5] it was > 100 µM; in test [6] it was > 100 µM. Also, the TGI in test [7] and in test [8] was > 100 µM throughout.
